Experimental data from patent US9415030B2 (priority 2008, dated 2016).
Read-outs that look alike come from different tables or passages of the source.

Tests used:
NMDA co-agonist site = NMDA co-agonist site (Homo sapiens, UniProt Q05586); details: 0.8 g/kg body weight/day; cited from earlier work
[1] = tested on: OCD, BDD, and ADHD symptoms
Text: Although individual symptoms have varied in intensity over time, the basic spectrum of signs and symptoms appears to have been unchanged over 15 years.
Participation in family gatherings has increased.

cognition = tested on: cognition
Text: Available evidence consists of records for formal cognitive testing, school records from pre-kindergarten through college (in progress), SAT scores, including scores on practice tests in an SAT preparation course, and diary-recorded observations made in parental tutoring sessions occurring from first grade through college.
Preparation for the SAT test included a test preparation course that involved practice tests that simulated actual test conditions. […] It should be noted that both official and unofficial SAT tests were taken in the standard time intervals.
No parental tutoring was given and it should be noted that Subject 1 received no special accommodations in this course.
In the course of these explanations, the importance of these facts was strongly emphasized. One and a half months after the course was over, Subject 1 was again queried by their parent on this topic.

[2] = tested on: cerebellar granule neurons; details: cultured cerebellar granule neurons; cited from earlier work
[3] = tested on: human cerebellar granule neurons; details: cultured cerebellar granule neurons; cited from earlier work
lupus mice = details: fed a lot of arginine in their diet; cited from earlier work
clinical = details: human, in vivo
Text: Hyperammonemia is seen in several abnormal conditions, e.g. inborn errors of metabolism that affect the urea cycle, small bowel syndrome, and others.

OCD = test: Earlier treatments of Subject 1 (SSRIs, atypical neuroleptics, IVIG); format: in vivo, human; details: Subject 1, before glycine treatment
[4] = 1 year after initiation of glycine treatment

glycine
NMDA activity (NMDA co-agonist site): moderately enhanced NMDA activity | intolerance of mirrors [1, 4]: reduced intolerance of mirrors | perseverative behavior during taxi rides [1, 4]: much reduced | decline on glycine cessation ([1]; 6 week cessation with no infection): little or no decline | BDD signs and symptoms after glycine cessation ([1]; 9 month cessation begun May 2006): clear increase in BDD signs and symptoms | line crossing obsession ([1]; Subject 1, during glycine treatment): no signs of the line crossing obsession | time to first behavioral improvement after initiation of glycine treatment ([1]; Subject 1, parent's report): about three | recovery of gains after glycine resumption ([1]; over three months after resumption): previous gains were largely recovered | BDD signs and symptoms ([1]; periods of sustained glycine treatment): continued to improve | college algebra test scores (cognition; 10 and 14 weeks after glycine cessation): low 90% range | college algebra test scores (cognition; 21 and 26 weeks after glycine cessation): low 80% range | improvement of SAT scores during Kaplan preparation course (cognition; course begun six months after starting glycine): approximately 250 points | cognition (cognition; high-dose glycine treatment): cognition improved | memory consolidation and/or retrieval (cognition; nine months after glycine cessation): return of difficulties in memory consolidation and/or retrieval | SAT math score, official test (cognition; sustained glycine treatment): 520 | SAT math score, practice test 1 (cognition; sustained glycine treatment): 390 | SAT math score, practice test 2 (cognition; sustained glycine treatment): 460 | SAT math score, practice test 3 (cognition; sustained glycine treatment): 490 | SAT verbal score, official test (cognition; sustained glycine treatment): 660 | SAT verbal score, practice test 1 (cognition; sustained glycine treatment): 540 | SAT verbal score, practice test 2 (cognition; sustained glycine treatment): 540 | SAT verbal score, practice test 3 (cognition; sustained glycine treatment): 600 | percentile of official SAT verbal score (cognition; sustained glycine treatment): 90 percentile

CC[C@H]1OC(=O)[C@H](C)[C@@H](O[C@H]2C[C@@](C)(OC)[C@@H](O)[C@H](C)O2)[C@H](C)[C@@H](O[C@@H]2O[C@H](C)C[C@H](N(C)C)[C@H]2O)[C@](C)(OC)C[C@@H](C)C(=O)[C@H](C)[C@@H](O)[C@]1(C)O [clarithromycin]
NMDA receptor mediated excitotoxic cell death [2]: inhibited NMDA receptor mediated excitotoxic cell death | kainate-mediated excitotoxicity [3]: not kainate-mediated excitotoxicity

N=C(N)NCCC[C@H](N)C(=O)O [arginine, L-arginine]
survival (lupus mice): die more quickly | concentration at 3 h (clinical): 98 µM | plasma ammonia concentration (clinical): ~94 µM

Fc1ccc([C@@H]2CCNC[C@H]2COc2ccc3c(c2)OCO3)cc1 [Paxil]
response of OCD to treatment (OCD): non-responder
